Test results reported in patent publication US10772807B2, “Lipid microcapsules preferably comprising a retinoid, and composition containing same, method for the production thereof, and use of same in dermatology” (GALDERMA RESEARCH & DEVELOPMENT, priority 2013, dated 2020).

Assays:
[1] = Chemical stability of Trifarotene in oily phases (HPLC-UV); type: physicochemical
Method: The stability of the active agent was evaluated by liquid chromatography coupled to a UV detector (HPLC-UV).

[2] = Maximum solubility of Trifarotene in various oily phases; type: physicochemical
[3] = in Caprylic/capric acid triglycerides (Miglyol ® 812N)
[4] = in Diisopropyl adipate (Schercemol Dia Ester)
[5] = in Macrogol oleate (Labrafil ® M1944CS)
[6] = in Octyldodecanol (Eutanol ® G)
[7] = in PPG-15 stearyl ether (Arlamol PS11E-LQ)
[8] = in Propylene glycol dicaprylate/dicaprate (Myritol ® PC)
[9] = in Propylene glycol monolaurate (Lauroglycol ® FCC)

- Stability [1, 3]: 6 months AT/40 °C
- Stability [1, 4]: 6 months AT/40 °C
- Stability [1, 5]: 6 months AT/40 °C
- Stability [1, 6]: Unstable
- Stability [1, 7]: 6 months AT/40 °C
- Stability [1, 8]: Unstable
- Stability ([1]; in Propylene glycol monocaprylate (Capryol ® 90), AT = ambient temperature): 6 months AT/40 °C
- Stability [1, 9]: 6 months AT/40 °C
- Stability ([1]; in Sweet almond oil): 6 months AT/40 °C
- Maximum solubility ([2]; in Alkyl (C12-15) benzoate (Crodamol AB)): 0.026 % w/w
- Maximum solubility [2, 3]: 0.019 % w/w
- Maximum solubility [2, 4]: 0.297 % w/w
- Maximum solubility [2, 5]: 0.156 % w/w
- Maximum solubility ([2]; in Mineral oil): 0.0001 % w/w
- Maximum solubility [2, 6]: 0.137 % w/w
- Maximum solubility [2, 7]: 0.292 % w/w
- Maximum solubility [2, 8]: 0.069 % w/w
- Maximum solubility ([2]; in Propylene glycol monocaprylate (Capryol ® 90)): 0.802 % w/w
- Maximum solubility [2, 9]: 0.296 % w/w
- Maximum solubility ([2]; in Sweet almond oil): 0.011 % w/w
Compound: CC(C)(C)c1cc(-c2cc(-c3ccc(C(=O)O)cc3)ccc2OCCO)ccc1N1CCCC1 [Trifarotene, 3″-tert-butyl-4′-(2-hydroxyethoxy)-4″-pyrrolidin-1-yl-[1,1′;3′,1″]-terphenyl-4-carboxylic acid]
